Experiment [1] deals with Human plasma kallikrein (Homo sapiens (Human), UniProt P03952). In words: Kallikrein Assay. In kind it is biochemical. Conditions: purified Human plasma kallikrein 0.5 nM, Acetyl-K-P-R-AFC, pH 7.4; Ki from IC50 by Cheng Prusoff. As to the method:
The effectiveness of a compound of the present invention as an inhibitor of Kallikrein can be determined using a relevant purified serine protease, and an appropriate synthetic substrate. The rate of hydrolysis of the chromogenic or fluorogenic substrate by the relevant serine protease was measured both in the absence and presence of compounds of the present invention. Assays were conducted at room temperature or at 37° C. […] A decrease in the rate of fluorescence change in the presence of inhibitor is indicative of enzyme inhibition. Such methods are known to one skilled in the art. The results of this assay are expressed as the inhibitory constant, Ki.
Kallikrein determinations were made in 50 mM HEPES buffer at pH 7.4 containing 150 mM NaCl, 5 mM CaCl2, and 0.1% PEG 8000 (polyethylene glycol; Fisher Scientific). Determinations were made using purified Human plasma kallikrein at a final concentration of 0.5 nM (Enzyme Research Laboratories) and the synthetic substrate, Acetyl-K-P-R-AFC (Sigma #C6608) at a concentration of […].
Times required to achieve equilibration between enzyme and inhibitor were determined in control experiments. The reactions were performed under linear progress curve conditions and fluorescence increase measured at 405 Ex/510 Em nm. […] IC50 was determined by inflection point from a four parameter logistic curve fit. Ki was calculated using the Cheng Prusoff equation, Ki=IC50/(1+([S]/Km)).

The target in experiment [2] is human Factor XIa (Homo sapiens (Human), UniProt P03951). In words: Factor XIa Assay. Type of experiment: biochemical. To be noted: purified human Factor XIa 40 pM, Z-Gly-Pro-Arg-AFC 100 μM, pH 7.4; read-out: FXIa Ki. In a few lines: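 Ki derived from the dependence of Vo/Vi on inhibitor concentration under a competitive-inhibition model, after pre-equilibration of enzyme and inhibitor. Reaction: 40 pM human FXIa, 100 μM Z-Gly-Pro-Arg-AFC, HEPES 50 mM pH 7.4 with NaCl, CaCl2 and PEG 8000; run at room temperature or 37° C.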

Among the data in patent US10093683B2, “Factor XIa inhibitors” (Merck Sharp & Dohme Corp., priority 2014, dated 2018) are Ki values, retold here.

Sequence of Human plasma kallikrein (P03952 391-638): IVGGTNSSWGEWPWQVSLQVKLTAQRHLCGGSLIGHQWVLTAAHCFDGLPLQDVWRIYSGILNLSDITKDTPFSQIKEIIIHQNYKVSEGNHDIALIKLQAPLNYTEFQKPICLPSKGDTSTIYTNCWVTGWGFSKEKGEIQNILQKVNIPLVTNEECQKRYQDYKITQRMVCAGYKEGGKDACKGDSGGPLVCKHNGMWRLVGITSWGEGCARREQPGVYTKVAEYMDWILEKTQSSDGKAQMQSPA
Sequence of Human plasma kallikrein (P03952 20-390 partner): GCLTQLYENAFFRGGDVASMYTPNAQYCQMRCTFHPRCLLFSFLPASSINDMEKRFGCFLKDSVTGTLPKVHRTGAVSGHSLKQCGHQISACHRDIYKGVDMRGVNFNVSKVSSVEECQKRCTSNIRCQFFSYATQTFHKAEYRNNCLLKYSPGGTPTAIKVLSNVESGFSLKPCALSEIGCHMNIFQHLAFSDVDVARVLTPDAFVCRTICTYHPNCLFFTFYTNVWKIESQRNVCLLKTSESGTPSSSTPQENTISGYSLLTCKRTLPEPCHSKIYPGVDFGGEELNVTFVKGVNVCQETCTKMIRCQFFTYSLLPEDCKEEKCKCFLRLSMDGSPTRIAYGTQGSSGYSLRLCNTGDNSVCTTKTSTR
Sequence of human Factor XIa (P03951 388-625): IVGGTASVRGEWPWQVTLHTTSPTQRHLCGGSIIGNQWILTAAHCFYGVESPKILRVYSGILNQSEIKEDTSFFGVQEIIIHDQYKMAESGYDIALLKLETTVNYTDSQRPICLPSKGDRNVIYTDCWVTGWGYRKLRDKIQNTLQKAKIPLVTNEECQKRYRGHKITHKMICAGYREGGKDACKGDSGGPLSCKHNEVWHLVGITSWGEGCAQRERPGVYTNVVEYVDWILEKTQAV
Sequence of human Factor XIa (P03951 19-387 partner): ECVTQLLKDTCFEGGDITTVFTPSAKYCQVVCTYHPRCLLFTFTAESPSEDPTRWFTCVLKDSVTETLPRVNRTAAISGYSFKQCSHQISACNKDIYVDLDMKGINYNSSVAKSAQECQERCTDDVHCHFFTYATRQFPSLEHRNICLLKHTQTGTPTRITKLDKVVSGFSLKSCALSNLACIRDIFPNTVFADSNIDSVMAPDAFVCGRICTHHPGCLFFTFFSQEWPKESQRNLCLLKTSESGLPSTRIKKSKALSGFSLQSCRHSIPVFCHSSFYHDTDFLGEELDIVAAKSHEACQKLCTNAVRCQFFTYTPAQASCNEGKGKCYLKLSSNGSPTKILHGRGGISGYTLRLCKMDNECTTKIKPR

What is called Ki is a measure of affinity in units of concentration, obtained from inhibition or displacement. Turning to `COC(=O)Nc1ccc(C(=O)N[C@@H](Cc2ccccc2)C(=O)N2CC[C@@]3(C2)OC(=O)Nc2ccc(Cl)cc23)cc1` [Example 6, methyl (4-(((S)-1-((R)-6-chloro-2-oxo-1,2-dihydrospiro[benzo[d][1,3]oxazine-4,3′-pyrrolidin]-1′-yl)-1-oxo-3-phenylpropan-2-yl)carbamoyl)phenyl)carbamate], the Ki in experiment [1] is 4.02 nM; in experiment [2], 4.7 nM.
Consider `COC(=O)Nc1ccc(C(=O)N[C@@H](Cc2ccccc2)C(=O)N2CC[C@@]3(C2)OC(=O)Nc2ccc(Cl)c(F)c23)cc1` [Example 7, methyl (4-(((S)-1-((R)-6-chloro-5-fluoro-2-oxo-1,2-dihydrospiro[benzo[d][1,3]oxazine-4,3′-pyrrolidin]-1′-yl)-1-oxo-3-phenylpropan-2-yl)carbamoyl)phenyl)carbamate], for which the results for the Ki in experiment [1] and in experiment [2] were 3.51 nM and 4.44 nM, respectively.
In the case of `COC(=O)Nc1ccc(C(=O)N[C@@H](Cc2ccccc2)C(=O)N2CCC[C@@]3(C2)OC(=O)Nc2ccc(F)cc23)cc1` [Example 8a, methyl (4-(((S)-1-((R)-6-fluoro-2-oxo-1,2-dihydrospiro[benzo[d][1,3]oxazine-4,3′-piperidin]-1′-yl)-1-oxo-3-phenylpropan-2-yl)carbamoyl)phenyl)carbamate], the Ki in experiment [1] was found to be 9.78 nM; in experiment [2], 12.8 nM.
As to `COC(=O)Nc1ccc(C(=O)N[C@@H](Cc2ccccc2)C(=O)N2CCC[C@@]3(C2)OC(=O)Nc2ccc(OC)cc23)cc1` [Example 9, methyl (4-(((S)-1-((R)-6-methoxy-2-oxo-1,2-dihydrospiro[benzo[d][1,3]oxazine-4,3′-piperidin]-1′-yl)-1-oxo-3-phenylpropan-2-yl)carbamoyl)phenyl)carbamate], the Ki was 2.6 nM in experiment [1] and 2 nM in experiment [2].
Taken in the same sequence, the figures for `COC(=O)Nc1ccc(C(=O)N[C@@H](Cc2ccccc2)C(=O)N2CCCC3(C2)OC(=O)Nc2ccc(Cl)c(F)c23)cc1` (stereo partly drawn) [Example 13, methyl (4-(((2S)-1-(6-chloro-5-fluoro-2-oxo-1,2-dihydrospiro[benzo[d][1,3]oxazine-4,3′-piperidin]-1′-yl)-1-oxo-3-phenylpropan-2-yl)carbamoyl)phenyl)carbamate] were 1.4 nM and 1.8 nM.
For the molecule `COC(=O)Nc1ccc(C(=O)N[C@@H](Cc2ccccc2)C(=O)N2CC[C@@]3(C2)OC(=O)Nc2ccc(C)cc23)cc1` [Example 14b, methyl (4-(((S)-1-((R)-6-methyl-2-oxo-1,2-dihydrospiro[benzo[d][1,3]oxazine-4,3′-pyrrolidin]-1′-yl)-1-oxo-3-phenylpropan-2-yl)carbamoyl)phenyl)carbamate], the values for the Ki in experiment [1] and in experiment [2] were 47.8 nM and 9.5 nM, respectively.
In the case of `COC(=O)Nc1ccc(C(=O)N[C@@H](Cc2ccccc2)C(=O)N2CCC[C@@]3(C2)OC(=O)Nc2ccc(C)cc23)cc1` [Example 15, methyl (4-(((S)-1-((R)-6-methyl-2-oxo-1,2-dihydrospiro[benzo[d][1,3]oxazine-4,3′-piperidin]-1′-yl)-1-oxo-3-phenylpropan-2-yl)carbamoyl)phenyl)carbamate], the Ki in experiment [1] is 2.8 nM; in experiment [2] it was 5.5 nM.
For the molecule `COC(=O)Nc1ccc(C(=O)N[C@@H](Cc2ccccc2)C(=O)N2CCC[C@@]3(C2)OC(=O)Nc2ccc(C)c(F)c23)cc1` [Example 16, methyl (4-(((S)-1-((R)-5-fluoro-6-methyl-2-oxo-1,2-dihydrospiro[benzo[d][1,3]oxazine-4,3′-piperidin]-1′-yl)-1-oxo-3-phenylpropan-2-yl)carbamoyl)phenyl)carbamate], the results for the Ki in experiment [1] and in experiment [2] were 1.36 nM and 3.85 nM, respectively.
Regarding `COC(=O)Nc1ccc(C(=O)N[C@@H](Cc2ccc(F)cc2)C(=O)N2CC[C@@]3(C2)OC(=O)Nc2ccc(Cl)cc23)cc1` [Example 22, methyl (4-(((S)-1-((R)-6-chloro-2-oxo-1,2-dihydrospiro[benzo[d][1,3]oxazine-4,3′-pyrrolidin]-1′-yl)-3-(4-fluorophenyl)-1-oxopropan-2-yl)carbamoyl)phenyl)carbamate], the Ki worked out at 21.9 nM in experiment [1] and 5.3 nM in experiment [2].
